Test results reported in the supplement of paper PMC10307832.

Key:
Assay in all cases: relative viability (nuclei count vs DMSO), 5 days (fraction); higher = more cells survive
[1] = test system: A-427
Procedure, shortened: (§1)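 One day after seeding in 1536-well plates, lung cancer cell lines were dosed by pin tool. Dosing was either single-drug or a fixed anchor-drug dose plus five library-drug doses (not always all listed) in √10 steps. After 5 days, nuclei were stained in one fix-and-stain step and counted on 4× images, and relative viability is the nuclei count of treated wells over that of vehicle wells, given as the median of duplicate plates.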

[2] = test system: CAL-12T
Procedure, shortened: as §1

[3] = test system: H3255
Procedure, shortened: as §1

[4] = test system: NCI-H1355
Procedure, shortened: as §1

[5] = test system: NCI-H1437
Procedure, shortened: as §1

[6] = test system: NCI-H1651
Procedure, shortened: as §1

[7] = test system: NCI-H1666
Procedure, shortened: as §1

[8] = test system: NCI-H1792
Procedure, shortened: as §1

[9] = test system: NCI-H1793
Procedure, shortened: as §1

[10] = test system: NCI-H2009
Procedure, shortened: as §1

[11] = test system: NCI-H2023
Procedure, shortened: as §1

[12] = test system: NCI-H2087
Procedure, shortened: as §1

[13] = test system: NCI-H23
Procedure, shortened: as §1

[14] = test system: NCI-H596
Procedure, shortened: as §1

[15] = test system: NCI-H727
Procedure, shortened: as §1

[16] = test system: NCI-H838
Procedure, shortened: as §1

[17] = test system: PC-14
Procedure, shortened: as §1

[18] = test system: SK-MES-1
Procedure, shortened: as §1

[19] = test system: SW 1573
Procedure, shortened: as §1

[20] = test system: UMC-11
Procedure, shortened: as §1

C=C1C(=O)O[C@@H](CCCCCCCC)[C@@H]1C(=O)O [C-75] + CC1(C)CCC(c2ccc(Cl)cc2)=C(CN2CCN(c3ccc(C(=O)NS(=O)(=O)c4ccc(N[C@H](CCN5CCOCC5)CSc5ccccc5)c(S(=O)(=O)C(F)(F)F)c4)cc3)CC2)C1 [Navitoclax] (partner 0.5 µM)
relative viability ([1]; first compound 0.08 µM): 0.935
relative viability ([1]; first compound 0.253 µM): 1.04
relative viability ([1]; first compound 0.8 µM): 0.915
relative viability ([1]; first compound 2.53 µM): 0.903
relative viability ([1]; first compound 8 µM): 0.93
relative viability ([2]; first compound 0.08 µM): 1.47
relative viability ([2]; first compound 0.253 µM): 1.44
relative viability ([2]; first compound 0.8 µM): 1.17
relative viability ([2]; first compound 8 µM): 1.08
relative viability ([3]; first compound 0.08 µM): 0.565
relative viability ([3]; first compound 0.253 µM): 0.5
relative viability ([3]; first compound 0.8 µM): 0.513
relative viability ([3]; first compound 2.53 µM): 0.466
relative viability ([3]; first compound 8 µM): 0.577
relative viability ([4]; first compound 0.08 µM): 0.951
relative viability ([4]; first compound 0.253 µM): 0.894
relative viability ([4]; first compound 0.8 µM): 0.867
relative viability ([4]; first compound 2.53 µM): 0.952
relative viability ([4]; first compound 8 µM): 0.956
relative viability ([5]; first compound 0.08 µM): 1.06
relative viability ([5]; first compound 0.253 µM): 1.13
relative viability ([5]; first compound 0.8 µM): 1.09
relative viability ([5]; first compound 2.53 µM): 1.09
relative viability ([5]; first compound 8 µM): 1.08
relative viability ([6]; first compound 0.08 µM): 1.07
relative viability ([6]; first compound 0.253 µM): 1.11
relative viability ([6]; first compound 0.8 µM): 0.955
relative viability ([6]; first compound 2.53 µM): 0.885
relative viability ([6]; first compound 8 µM): 0.901
relative viability ([7]; first compound 0.08 µM): 0.94
relative viability ([7]; first compound 0.253 µM): 1.19
relative viability ([7]; first compound 0.8 µM): 0.742
relative viability ([7]; first compound 2.53 µM): 0.891
relative viability ([7]; first compound 8 µM): 0.567
relative viability ([8]; first compound 0.08 µM): 0.595
relative viability ([8]; first compound 0.253 µM): 0.575
relative viability ([8]; first compound 0.8 µM): 0.46
relative viability ([8]; first compound 2.53 µM): 0.303
relative viability ([8]; first compound 8 µM): 0.59
relative viability ([9]; first compound 0.08 µM): 0.494
relative viability ([9]; first compound 0.253 µM): 0.564
relative viability ([9]; first compound 0.8 µM): 0.313
relative viability ([9]; first compound 2.53 µM): 0.308
relative viability ([9]; first compound 8 µM): 0.29
relative viability ([10]; first compound 0.08 µM): 1.16
relative viability ([10]; first compound 0.253 µM): 1.08
relative viability ([10]; first compound 0.8 µM): 1.1
relative viability ([10]; first compound 2.53 µM): 0.971
relative viability ([10]; first compound 8 µM): 0.946
relative viability ([11]; first compound 0.08 µM): 0.971
relative viability ([11]; first compound 0.253 µM): 1.04
relative viability ([11]; first compound 0.8 µM): 0.959
relative viability ([11]; first compound 2.53 µM): 0.659
relative viability ([11]; first compound 8 µM): 0.945
relative viability ([12]; first compound 0.08 µM): 1.02
relative viability ([12]; first compound 0.253 µM): 1.05
relative viability ([12]; first compound 0.8 µM): 0.934
relative viability ([12]; first compound 2.53 µM): 0.927
relative viability ([12]; first compound 8 µM): 0.87
relative viability ([13]; first compound 0.08 µM): 0.801
relative viability ([13]; first compound 0.253 µM): 1.01
relative viability ([13]; first compound 0.8 µM): 0.666
relative viability ([13]; first compound 2.53 µM): 0.672
relative viability ([13]; first compound 8 µM): 0.717
relative viability ([14]; first compound 0.08 µM): 0.961
relative viability ([14]; first compound 0.253 µM): 1.16
relative viability ([14]; first compound 0.8 µM): 0.901
relative viability ([14]; first compound 2.53 µM): 0.771
relative viability ([14]; first compound 8 µM): 0.897
relative viability ([15]; first compound 0.08 µM): 0.464
relative viability ([15]; first compound 0.253 µM): 0.62
relative viability ([15]; first compound 0.8 µM): 0.436
relative viability ([15]; first compound 2.53 µM): 0.377
relative viability ([15]; first compound 8 µM): 0.319
relative viability ([16]; first compound 0.08 µM): 1.12
relative viability ([16]; first compound 0.253 µM): 0.916
relative viability ([16]; first compound 0.8 µM): 1.14
relative viability ([16]; first compound 2.53 µM): 1.03
relative viability ([16]; first compound 8 µM): 0.954
relative viability ([17]; first compound 0.08 µM): 1.01
relative viability ([17]; first compound 0.253 µM): 1
relative viability ([17]; first compound 0.8 µM): 0.977
relative viability ([17]; first compound 2.53 µM): 0.911
relative viability ([17]; first compound 8 µM): 0.978
relative viability ([18]; first compound 0.08 µM): 1.31
relative viability ([18]; first compound 0.253 µM): 1.23
relative viability ([18]; first compound 0.8 µM): 1.16
relative viability ([18]; first compound 2.53 µM): 1.21
relative viability ([18]; first compound 8 µM): 1.17
relative viability ([19]; first compound 0.08 µM): 1.01
relative viability ([19]; first compound 0.253 µM): 0.969
relative viability ([19]; first compound 0.8 µM): 1.21
relative viability ([19]; first compound 2.53 µM): 1.06
relative viability ([19]; first compound 8 µM): 0.875
relative viability ([20]; first compound 0.08 µM): 0.3
relative viability ([20]; first compound 0.253 µM): 0.299
relative viability ([20]; first compound 0.8 µM): 0.292
relative viability ([20]; first compound 2.53 µM): 0.287
relative viability ([20]; first compound 8 µM): 0.239
